Measurements from patent publication US10858344B2, “Hydantoin containing deoxyuridine triphosphatase inhibitors” (CV6 Therapeutics (NI) Limited, priority 2016, dated 2020).
pIC50: −log10 of the molar value.

Biological target: recombinant human deoxyuridine nucleotidohydrolase (dUTPase) (Homo sapiens (Human), UniProt P33316)
Assay: fluorescence-based dUTPase inhibition assay
Type: biochemical
Conditions: for % relative inhibition vs. positive control: mean over three concentrations, typically 100, 50 and 25 μmol/L, compared to in-run positive control
Description: Recombinant human deoxyuridine nucleotidohydrolase (dUTPase) is expressed and purified as described in Ladner R D, Carr S A, Huddleston M J, McNulty D E, Caradonna S J. J Biol Chem. 1996 Mar. 29; 271(13):7752-7. All drugs stocks are aliquoted and diluted as appropriate prior to use. The oligonucelotide primer, templates and fluorophore- and quencher-labeled detection probes are synthesized by Integrated DNA Technologies (Coralville, Iowa), subjected to polyacrylamide gel electrophoresis purification and reconstituted in Omnipur sterile nuclease-free water (EMD Chemicals USA, Gibbstown N.J.) at a stock concentration of 100 μmol/L. The two non-emissive (dark) quenching molecules incorporated into the detection probes include the Iowa black fluorescein quencher (IBFQ; absorption max 531 nm) and ZEN (non-abbreviation; absorption max 532 nm). The fluorescent label utilized is 6-FAM (5′-carboxyfluorescein; excitation max.=494 nm, emission max.=520 nm). Probes are further diluted to a working stock of 10 μmol/L and aliquoted to avoid repeated freeze/thaw cycles. AmpliTaq Gold DNA Polymerase, GeneAmp 10×PCR Buffer 2, MgCl2 and MicroAmp Optical 96-well Reaction Plates are purchased from Applied Biosystems (Carlsbad, Calif.). dNTPs are purchased individually at stock concentrations of 100 mmol/L from New England Biolabs at HPLC-certified >99% purity (Ipswich, Mass.).
Reaction mixtures contained primer, probe and template at an equimolar final concentration of 0.4 μmol/L. Magnesium chloride (MgCl2) is included at a final concentration of 2 mmol/L. Non-limiting dNTPs are included in the reaction mix in excess at a final concentration of 100 μmol/L (dUTP/dTTP is excluded). AmpliTaq Gold DNA polymerase is added at 0.875 U/reaction, 2.5 μl of 10×PCR buffer 2 added and nuclease-free ddH2O added to a final reaction volume of 25 μl. For dUTP inhibition analysis, the volume of ddH2O is further modified to accommodate an additional 1 μl of dUTPase (10 ng/μl) and 1 μl of inhibitor or DMSO control. Thermal profiling and fluorescence detection is performed using a customized thermal program on board a Roche Lightcycler LC480 Instrument II. For analysis of dNTPs, the thermal profile consisted of an 8 min 37° C. step followed by a 10 min 95° C. step to ‘hot-start’ the Taq polymerase and a primer extension time of up to 30 min at 60° C. Raw fluorescence spectra for 6-FAM is measured at specified time intervals to follow assay progression on board a Roche LightCycler 480 Software Version 1.5 and exported and analyzed in Microsoft Excel (Microsoft, Redmond Wash.) and Prism (GraphPad Software, La Jolla Calif.). Fluorescence values for blank reactions (limiting dNTP omitted) are subtracted to give normalized fluorescence units (NFU) to account for background fluorescence.
Test compounds are screened in a fluorescence-based assay. The assay employs a DNA polymerase-based approach utilizing an oligonucleotide template with 3 distinct regions: a 3′ primer binding region, a mid-template dUTP/thymidine triphosphate (TTP) detection region and a 5′ 6-[…] (FAM)-labeled probe binding region that incorporates a black hole quenching moiety. During the reaction, the probe and primer hybridize to the oligonucleotide template to form the template:primer:probe complex. When Taq polymerase binds to the primer in the TPP complex and dUTP is present, successful extension of the nascent strand occurs and the inherent 5′ to 3′ exonuclease activity of Taq polymerase cleaves and displaces the 6-FAM-labeled probe in a 5′ to 3′ direction, releasing the 6-FAM fluorophore from its proximity to the three quenchers. This displacement effectively disrupts the Förster resonance energy transfer (FRET) and the resulting fluorescence detected upon excitation is directly proportional to the amount of the dUTP available in the assay for incorporation. […]

Chain of recombinant human deoxyuridine nucleotidohydrolase (dUTPase) (P33316 other isoform, or with tags, fused parts or gaps): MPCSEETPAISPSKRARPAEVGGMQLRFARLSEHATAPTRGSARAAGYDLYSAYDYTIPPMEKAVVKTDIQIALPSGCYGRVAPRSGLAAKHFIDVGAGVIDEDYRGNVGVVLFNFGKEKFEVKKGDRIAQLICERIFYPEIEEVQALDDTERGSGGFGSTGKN

Structure (SMILES) | % relative inhibition vs. positive control | pIC50
CC1(C)C(=O)NC(=O)N1CCCCCS(=O)(=O)NC1(c2ccc(F)c(OCC3CC3)c2)CC1 [119b, N-(1-(3-(cyclopropylmethoxy)-4-fluorophenyl)cyclopropyl)-5-(5,5-dimethyl-2,4-dioxoimidazolidin-1-yl)pentane-1-sulfonamide] | 23% | 
C[C@@H](NS(=O)(=O)C/C=C/CCC1(C)NC(=O)NC1=O)c1ccc(F)c(OCC2CC2)c1 (stereo partly drawn) [127a, (E)-N—((R)-1-(3-(cyclopropylmethoxy)-4-fluorophenyl)ethyl)-5-(4-methyl-2,5-dioxoimidazolidin-4-yl) pent-2-ene-1-sulfonamide] | 37% | 
CC1(C)C(=O)NC(=O)N1C/C=C/CCS(=O)(=O)NC1(c2ccc(F)c(OCC(F)F)c2)CC1 [compound 121, (E)-N-(1-(3-(2,2-difluoroethoxy)-4-fluorophenyl)cyclopropyl)-5-(5,5-dimethyl-2,4-dioxoimidazolidin-1-yl)pent-3-ene-1-sulfonamide] | 21% | 
C[C@@H](NS(=O)(=O)CCCCCN1CC(=O)N(COCC[Si](C)(C)C)C1=O)c1ccc(F)c(OCC2CC2)c1 [Example 95, (R)—N-(1-(3-(cyclopropylmethoxy)-4-fluorophenyl)ethyl)-5-(2,4-dioxo-3-((2-(trimethylsilyl)ethoxy)methyl)-imidazolidin-1-yl)pentane-1-sulfonamide] | 0% | < 4.60
O=C1CN(CCCCCS(=O)(=O)NC2CCc3c2ccc(F)c3OCC2CC2)C(=O)N1 (centres unmarked) [Example 105, N-(4-(cyclopropylmethoxy)-5-fluoro-2,3-dihydro-1H-inden-1-yl)-5-(2,4-dioxoimidazolidin-1-yl) pentane-1-sulfonamide] | 36% | 
C[C@@H](NS(=O)(=O)CCCCCN1CC(=O)NC1=O)c1ccc(F)c(OCC2CCC2)c1 [Example 88, (R)—N-(1-(3-(cyclobutylmethoxy)-4-fluorophenyl)ethyl)-5-(2,4-dioxoimidazolidin-1-yl)pentane-1-sulfonamide] | 93% | 6.10
C[C@@H](NS(=O)(=O)CCCCCN1CC(=O)NC1=O)c1ccc(F)c(OCc2nn[nH]n2)c1 [Example 102, (R)—N-(1-(3-((2H-tetrazol-5-yl)methoxy)-4-fluorophenyl)ethyl)-5-(2,4-dioxoimidazolidin-1-yl)pentane-1-sulfonamide] | 0% | < 4.60
C[C@@H](NS(=O)(=O)CCn1ccc(N2CC(=O)NC2=O)n1)c1ccc(F)c(OCC2CC2)c1 [Example 106, (R)—N-(1-(3-(cyclopropylmethoxy)-4-fluorophenyl)ethyl)-2-(3-(2,4-dioxoimidazolidin-1-yl)-1H-pyrazol-1-yl)ethane-1-sulfonamide] | 1% | 3.82
CC(C)COc1cc([C@@H](C)NS(=O)(=O)CCCOCN2CC(=O)NC2=O)ccc1F [Example 116, (R)-3-((2,4-dioxoimidazolidin-1-yl)methoxy)-N-(1-(4-fluoro-3-isobutoxyphenyl)ethyl)propane-1-sulfonamide] | 173% | 
C[C@@H](NS(=O)(=O)CCCCCN1CC(=O)NC1=O)c1ccc(F)c(NCC2CC2)c1 [Example 96, (R)—N-(1-(3-((cyclopropylmethyl)amino)-4-fluorophenyl)ethyl)-5-(2,4-dioxoimidazolidin-1-yl)pentane-1-sulfonamide] | 19% | 5.40
C[C@@H](NS(=O)(=O)CC/C=C/CN1C(=O)NC(=O)[C@@H]1C)c1ccc(F)c(OCC2CC2)c1 [Compound 107a, (E)-N—((R)-1-(3-(cyclopropylmethoxy)-4-fluorophenyl)ethyl)-5-((S)-5-methyl-2,4-dioxoimidazolidin-1-yl)pent-3-ene-1-sulfonamide] | 153% | 
C[C@@H](NS(=O)(=O)CCCCCN1CC(=O)NC1=O)c1ccc(F)c(OC[C@@H]2CCCN2C)c1 [Example 91, 5-(2,4-dioxoimidazolidin-1-yl)-N—((R)-1-(4-fluoro-3-(((S)-1-methylpyrrolidin-2-yl)methoxy)phenyl)ethyl)pentane-1-sulfonamide] | 1% | 3.82
O=C1CN(CCCCCS(=O)(=O)NC(c2ccc(F)c(OCC3CC3)c2)C2CC2)C(=O)N1 (centres unmarked) [Example 104, N-(cyclopropyl (3-(cyclopropylmethoxy)-4-fluorophenyl)methyl)-5-(2,4-dioxoimidazolidin-1-yl) pentane-1-sulfonamide] | 57% | 
C[C@@H](NS(=O)(=O)CCOCCN1CC(=O)NC1=O)c1cccc(OCC2CC2)c1 [Example 114, (R)—N-(1-(3-(cyclopropylmethoxy)phenyl)ethyl)-2-(2-(2,4-dioxoimidazolidin-1-yl)ethoxy)ethane-1-sulfonamide] | 124% | 
C[C@H](c1ccc(F)c(OCC2CC2)c1)N(C)S(=O)(=O)CCCCCN1CC(=O)NC1=O [Example 92, (R)—N-(1-(3-(cyclopropylmethoxy)-4-fluorophenyl)ethyl)-5-(2,4-dioxoimidazolidin-1-yl)-N-methylpentane-1-sulfonamide] | 12% | 5.20
C[C@@H](NS(=O)(=O)CCCCCN1CC(=O)NC1=O)c1ccc(F)c(OCC(=O)O)c1 [Example 101, (R)-2-(5-(1-((5-(2,4-dioxoimidazolidin-1-yl)pentyl)sulfonamido)ethyl)-2-fluorophenoxy)acetic acid] | 4% | 4.70
C[C@H]1C(=O)NC(=O)N1COCCCS(=O)(=O)NC1(c2ccc(F)c(OCC3CC3)c2)CC1 [compound 124, (S)—N-(1-(3-(cyclopropylmethoxy)-4-fluorophenyl)cyclopropyl)-3-((5-methyl-2,4-dioxoimidazolidin-1-yl)methoxy)propane-1-sulfonamide] | 153% | 
C[C@H]1C(=O)NC(=O)N1C/C=C/CCS(=O)(=O)NC1(c2cccc(OCC3CC3)c2)CC1 [123a, (S,E)-N-(1-(3-(cyclopropylmethoxy)phenyl)cyclopropyl)-5-(5-methyl-2,4-dioxoimidazolidin-1-yl)pent-3-ene-1-sulfonamide] | 105% | 
O=C1CN(CCCCCCNS(=O)(=O)c2cccc(OCC3CC3)c2)C(=O)N1 [Example 80, 3-(cyclopropylmethoxy)-N-(6-(2,4-dioxoimidazolidin-1-yl)hexyl)benzenesulfonamide] | 151% | 
CCOc1cc([C@@H](C)NS(=O)(=O)CCCCCN2CC(=O)NC2=O)ccc1F [Example 82, (R)-5-(2,4-dioxoimidazolidin-1-yl)-N-(1-(3-ethoxy-4-fluorophenyl)ethyl)pentane-1-sulfonamide] | 25% | 5.52
C[C@@H](NS(=O)(=O)CCCCCN1CC(=O)NC1=O)c1ccc(F)c(OC2CCOCC2)c1 [Example 98, (R)-5-(2,4-dioxoimidazolidin-1-yl)-N-(1-(4-fluoro-3-((tetrahydro-2H-pyran-4-yl)oxy)phenyl)ethyl)pentane-1-sulfonamide] | 25% | 5.52
C[C@@H](NS(=O)(=O)CCCCCC1(C)NC(=O)NC1=O)c1ccc(F)c(OCC2CC2)c1 (stereo partly drawn) [127b, N—((R)-1-(3-(cyclopropylmethoxy)-4-fluorophenyl)ethyl)-5-(4-methyl-2,5-dioxoimidazolidin-4-yl) pentane-1-sulfonamide] | 71% | 
